Results as given in patent US8206707B2, “Combination therapy for the treatment of ocular neovascular disorders” (Ophthotech Corporation, priority 2004, dated 2012).
“Also recorded” adds a separate entry of the source.

Assays:
[1] = test system: choroidal neovascularization; test: Laser-induced choroidal neovascularization (CNV) model, Example 2; assay type: in vivo, C57BL/6 mice; conditions: treated 7 days from day 7; for decrease in CNV area compared to control eyes: experiment with Gleevec (50 mg/kg gavage twice a day) and pegaptanib 25 mg/kg i.p. twice a day
Experimental: Experimental CNV is often used as a model for Age-related Macular degeneration (AMD). In this model, vessels of the choroid grow through breaks in Bruch's membrane and into the retina, similar to what is observed in AMD patients. To induce experimental CNV, male C57BL/6 mice (18-20 g; Charles River, Wilmington, Mass.) were anesthetized with intramuscular ketamine hydrochloride (25 mg/kg) and xylazine (10 mg/kg) and the pupils were dilated with 1% tropicamide. Four burns were generated using diode laser photocoagulation (75-μm spot size, 0.1-second duration, 90 mW, Oculight SL laser, IRIDEX, Mountain View, Calif.) and a hand-held cover slide as a contact lens. Burns localized to the 3, 6, 9 and 12 o'clock positions of the posterior pole of the retina. Production of a bubble at the time of laser, which indicates rupture of Bruch's membrane, is an important factor in obtaining choroidal neovascularization, so only mice in which a bubble was produced for all four burns were included in the study. […] In experiments using APB5 (an anti-mouse PDGFRb (CD140b) antibody (anti-PDGF agent) from eBioscience, San Diego, Calif.), 5 mg/kg of antibody was administered using intra-peritoneal injections of twice a day. The area of choroidal NV lesions was measured in flat-mounted choroid stained with PECAM. Flat-mounts were examined by fluorescence microscopy and quantified using Openlab software.

[2] = test system: corneal neovascularization; test: Corneal NV regression, anti-VEGF aptamer and anti-PDGF aptamer, Example 6; assay type: in vivo, C57BL/6 mice; conditions: pegaptanib 25 mg/kg i.p. twice a day, ARC-127 50 mg/kg once a day; treated day 10-20, read day 20; FIGS. 11, 12
Experimental: (§1) Corneal Neovascularization is a widely used animal model that allows clear visualization of abnormal vascular growth in the eye. The vessels that grow into the normally avascular cornea, can become well established, making this an attractive model to study vessel regression. To induce experimental corneal NV, male C57BL/6 mice (18-20 g; Charles River, Wilmington, Mass.) were anesthetized with intramuscular ketamine hydrochloride (25 mg/kg) and xylazine (10 mg/kg). NaOH (2 ul of 0.2 mM) was applied topically. The corneal and limbal epithelia were removed by applying a rotary motion parallel to the limbus using #21 blade (Feather, Osaka, Japan). […] Corneal NV was visualized using fluorescence microscopy and quantified using Openlab software. The percent of cornea covered by vessels was calculated as a percentage of total corneal area.
The corneal NV model of Example 1 was used to investigate the combination of an anti-VEGF aptamer and anti-PDGF aptamer. […] Corneal NV was visualized using CD31 staining (BD Biosciences Pharmingen, San Diego, Calif.) and quantified using Metamorph software. The percent of cornea covered by vessels was calculated as a percentage of total corneal area.

[3] = test system: developing vessels of the retina; test: Neonatal mouse model, developing vessels of the retina, Example 3; assay type: in vivo, Neonatal C57BL/6 mice; conditions: for effect on blood vessels of the developing retina (growth, morphology): 100 μg of each agent i.p. daily from P0, eyes taken at P4, versus control non-treated retina, FIG. 10
Text: The effect of administering pegaptanib sodium (Macugen™), and ARC-127 (Archemix Corp., Cambridge, Mass.), a PEGylated, anti-PDGF aptamer having the sequence […] […] […] GT (SEQ ID NO: 23, which corresponds to SEQ ID NO: 146 from U.S. Pat. No. 6,582,918, incorporated herein by reference in its entirety) having 2′-fluoro-2′-deoxyuridine at positions 6, 20 and 30, 2′-fluoro-2′-deoxycytidine at positions 8, 21, 28, and 29, 2′-O -Methyl-2′-deoxyguanosine at positions 9, 15, 17, and 31, 2′-O-Methyl-2′-deoxyadenosine at position 22, “N” in positions 10 and 23 from a hexaethylene-glycol phosphoramidite, and an inverted orientation T (i.e., 3′-3′-linked) at position 32, or both on the developing vessels of the retina was investigated. Neonatal C57BL/6 mice were injected daily (in the intra-peritoneal cavity) with 100 μg of ARC-127 or 100 μg of Macugen or both, starting on postnatal day 0 (P0). Mice eyes were enucleated at P4. The retinal vasculature was visualized in flatmounted retinas by immunostaining with PECAM and NG-2 or by perfusion with ConA-FITC and analyzed by fluorescence microscopy.

[4] = test system: corneal neovascularization; test: Corneal neovascularization (corneal NV) model, Example 1; assay type: in vivo, C57BL/6 mice; conditions: mice; pegaptanib 25 mg/kg i.p. twice a day, Gleevec 50 mg/kg gavage twice a day; treated day 7-14, read day 14; FIG. 5
[5] = test system: corneal neovascularization; test: Corneal NV regression, order of addition of therapeutic agent, Example 8; assay type: in vivo, C57BL/6 mice; conditions: APB5 from day 14-21, pegaptanib sodium from day 21-28; read day 28; FIG. 14
Experimental: as §1
(§2) The corneal NV model of Example 1 was used to investigate the effect of order of addition of the combination therapy using an anti-VEGF aptamer and an antibody against the PDGFB receptor. […] Corneal NV was visualized using fluorescence microscopy and quantified using Openlab software. The percent of cornea covered by vessels was calculated as a percentage of total corneal area and the results are depicted in FIG. 14.

[6] = test system: corneal neovascularization; test: Corneal NV regression, anti-VEGF aptamer and antibody against PDGFB receptor, Example 7; assay type: in vivo, C57BL/6 mice; conditions: pegaptanib 25 mg/kg i.p. twice a day, APB5 50 mg/kg by gavage twice a day; treated day 14-28, read day 28; FIG. 13
Experimental: as §1
as §2, with “combination” for “effect”, “of” for “of order of addition of the combination therapy using”, “area.” for “area and the results are depicted in FIG. 14.”

Compound	decrease in CNV area compared to control eyes [1] [%]	decrease in vessel growth (percent of cornea covered by vessels) as compared to day 20 controls [2]	mural cell recruitment to the developing vessels of the retina ([3]; 100 μg i.p. daily from P0, eyes taken at P4)	effect on blood vessels of the developing retina (growth, morphology) [3]	decrease in vessel growth (percent of cornea covered by vessels) as compared to untreated controls and Gleevec treated eyes [4] [%]	regression of corneal neovascularization, less neovascular growth as compared to control [5]	decrease in vessel growth (percent of cornea covered by vessels) as compared to control [6] [%]	decrease in CNV area compared to control ([1]; experiment with APB5 (5 mg/kg i.p. twice a day) and pegaptanib 25 mg/kg i.p. twice a day) [%]	effect on blood vessels of the developing retina (growth, morphology) ([3]; listed as Macugen)
Cc1ccc(NC(=O)c2ccc(CN3CCN(C)CC3)cc2)cc1Nc1nccc(-c2cccnc2)n1 [Gleevec]	4.2								
ARC-127: PEGylated, anti-PDGF aptamer (Archemix Corp.), sequence CAGGCUACGNCGTAGAGCAUCANTGATCCUGT (SEQ ID NO: 23) with 2′-fluoro and 2′-O-methyl modifications (CAGGCUACGNCGTAGAGCAUCANTGATCCUGT; PEG, 2'-fluoro and 2'-O-methyl modifications, chemistry not fully specified)		did not show a significant decrease	completely blocked	less vessel growth; also recorded: affects vessels outgrowth and morphology					
pegaptanib sodium	27	13.81%			19.6	little effect	8.3	24	did not interfere; also recorded: no effect
